{
  "source": "the supplement of paper PMC10307832",
  "assay_in_all_cases": "relative viability (nuclei count vs DMSO), 5 days (fraction); higher = more cells survive",
  "key": {"EBC-1": {"system": "EBC-1", "outline": "(§1)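 After 5 days of treatment, lung cancer cells in 1536-well plates were fixed and stained in a single step (final 0.05% Triton X-100, 1% formaldehyde, 1 ug/ml Hoechst) and their nuclei counted on 4× images. Treatment had been applied by pin tool the day after seeding as one drug alone or as a fixed anchor-drug dose with five library-drug doses (not always all listed) in √10 steps. Relative viability is the nuclei count of treated wells divided by that of vehicle wells, and values are medians of duplicate plates.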"}, "A549": {"system": "A549", "outline": "as §1"}, "Calu-6": {"system": "Calu-6", "outline": "as §1"}, "NCI-H1299": {"system": "NCI-H1299", "outline": "as §1"}, "NCI-H1563": {"system": "NCI-H1563", "outline": "as §1"}, "NCI-H1703": {"system": "NCI-H1703", "outline": "as §1"}, "IA-LM": {"system": "IA-LM", "outline": "as §1"}},
  "data": [
    {"smiles": "O=C(O)CCCCC(CCSCc1ccccc1)SCc1ccccc1", "note": "(stereo not given) [CPI-613] + C[C@@H](Oc1cc(-c2cnn(C3CCNCC3)c2)cnc1N)c1c(Cl)ccc(F)c1Cl [Crizotinib] (partner 1 µM)", "values": [
      {"measurement": "relative viability", "setting": "EBC-1; first compound 5 µM", "value": 0.179},
      {"measurement": "relative viability", "setting": "EBC-1; first compound 15.81 µM", "value": 0.198},
      {"measurement": "relative viability", "setting": "EBC-1; first compound 50 µM", "value": 0.197},
      {"measurement": "relative viability", "setting": "EBC-1; first compound 158.11 µM", "value": 0.133},
      {"measurement": "relative viability", "setting": "EBC-1; first compound 500 µM", "value": 0.167},
      {"measurement": "relative viability", "setting": "A549; first compound 5 µM", "value": 0.738},
      {"measurement": "relative viability", "setting": "A549; first compound 15.81 µM", "value": 0.595},
      {"measurement": "relative viability", "setting": "A549; first compound 50 µM", "value": 0.526},
      {"measurement": "relative viability", "setting": "A549; first compound 158.11 µM", "value": 0.191},
      {"measurement": "relative viability", "setting": "A549; first compound 500 µM", "value": 0.145},
      {"measurement": "relative viability", "setting": "Calu-6; first compound 5 µM", "value": 0.802},
      {"measurement": "relative viability", "setting": "Calu-6; first compound 15.81 µM", "value": 0.622},
      {"measurement": "relative viability", "setting": "Calu-6; first compound 50 µM", "value": 0.741},
      {"measurement": "relative viability", "setting": "Calu-6; first compound 158.11 µM", "value": 0.556},
      {"measurement": "relative viability", "setting": "Calu-6; first compound 500 µM", "value": 0.346},
      {"measurement": "relative viability", "setting": "NCI-H1299; first compound 5 µM", "value": 0.926},
      {"measurement": "relative viability", "setting": "NCI-H1299; first compound 15.81 µM", "value": 0.942},
      {"measurement": "relative viability", "setting": "NCI-H1299; first compound 50 µM", "value": 0.944},
      {"measurement": "relative viability", "setting": "NCI-H1299; first compound 158.11 µM", "value": 0.889},
      {"measurement": "relative viability", "setting": "NCI-H1299; first compound 500 µM", "value": 0.861},
      {"measurement": "relative viability", "setting": "NCI-H1563; first compound 5 µM", "value": 0.834},
      {"measurement": "relative viability", "setting": "NCI-H1563; first compound 15.81 µM", "value": 0.877},
      {"measurement": "relative viability", "setting": "NCI-H1563; first compound 50 µM", "value": 0.857},
      {"measurement": "relative viability", "setting": "NCI-H1563; first compound 158.11 µM", "value": 0.477},
      {"measurement": "relative viability", "setting": "NCI-H1563; first compound 500 µM", "value": 0.211},
      {"measurement": "relative viability", "setting": "NCI-H1703; first compound 5 µM", "value": 0.582},
      {"measurement": "relative viability", "setting": "NCI-H1703; first compound 15.81 µM", "value": 0.487},
      {"measurement": "relative viability", "setting": "NCI-H1703; first compound 50 µM", "value": 0.531},
      {"measurement": "relative viability", "setting": "NCI-H1703; first compound 158.11 µM", "value": 0.31},
      {"measurement": "relative viability", "setting": "NCI-H1703; first compound 500 µM", "value": 0.284},
      {"measurement": "relative viability", "setting": "IA-LM; first compound 5 µM", "value": 0.584},
      {"measurement": "relative viability", "setting": "IA-LM; first compound 15.81 µM", "value": 0.549},
      {"measurement": "relative viability", "setting": "IA-LM; first compound 50 µM", "value": 0.621},
      {"measurement": "relative viability", "setting": "IA-LM; first compound 158.11 µM", "value": 0.454},
      {"measurement": "relative viability", "setting": "IA-LM; first compound 500 µM", "value": 0.22}
    ]},
    {"smiles": "O=c1[nH]c2ccccc2n1C1CCN(CCCC(c2ccc(F)cc2)c2ccc(F)cc2)CC1", "note": "[Pimozide] + CC1(C)CCC(c2ccc(Cl)cc2)=C(CN2CCN(c3ccc(C(=O)NS(=O)(=O)c4ccc(N[C@H](CCN5CCOCC5)CSc5ccccc5)c(S(=O)(=O)C(F)(F)F)c4)cc3)CC2)C1 [Navitoclax] (partner 0.5 µM)", "values": [
      {"measurement": "relative viability", "setting": "EBC-1; first compound 0.08 µM", "value": 0.356},
      {"measurement": "relative viability", "setting": "EBC-1; first compound 0.253 µM", "value": 0.493},
      {"measurement": "relative viability", "setting": "EBC-1; first compound 0.8 µM", "value": 0.367},
      {"measurement": "relative viability", "setting": "EBC-1; first compound 2.53 µM", "value": 0.309},
      {"measurement": "relative viability", "setting": "EBC-1; first compound 8 µM", "value": 0.211},
      {"measurement": "relative viability", "setting": "A549; first compound 0.08 µM", "value": 1.28},
      {"measurement": "relative viability", "setting": "A549; first compound 0.253 µM", "value": 1.31},
      {"measurement": "relative viability", "setting": "A549; first compound 0.8 µM", "value": 1.15},
      {"measurement": "relative viability", "setting": "A549; first compound 2.53 µM", "value": 1.14},
      {"measurement": "relative viability", "setting": "A549; first compound 8 µM", "value": 0.987},
      {"measurement": "relative viability", "setting": "Calu-6; first compound 0.08 µM", "value": 0.785},
      {"measurement": "relative viability", "setting": "Calu-6; first compound 0.253 µM", "value": 0.805},
      {"measurement": "relative viability", "setting": "Calu-6; first compound 0.8 µM", "value": 0.844},
      {"measurement": "relative viability", "setting": "Calu-6; first compound 2.53 µM", "value": 0.704},
      {"measurement": "relative viability", "setting": "Calu-6; first compound 8 µM", "value": 0.774},
      {"measurement": "relative viability", "setting": "NCI-H1299; first compound 0.08 µM", "value": 1.04},
      {"measurement": "relative viability", "setting": "NCI-H1299; first compound 0.253 µM", "value": 0.969},
      {"measurement": "relative viability", "setting": "NCI-H1299; first compound 0.8 µM", "value": 0.99},
      {"measurement": "relative viability", "setting": "NCI-H1299; first compound 2.53 µM", "value": 1.03},
      {"measurement": "relative viability", "setting": "NCI-H1299; first compound 8 µM", "value": 1.03},
      {"measurement": "relative viability", "setting": "NCI-H1703; first compound 0.08 µM", "value": 1.05},
      {"measurement": "relative viability", "setting": "NCI-H1703; first compound 0.253 µM", "value": 0.99},
      {"measurement": "relative viability", "setting": "NCI-H1703; first compound 0.8 µM", "value": 0.982},
      {"measurement": "relative viability", "setting": "NCI-H1703; first compound 2.53 µM", "value": 0.801},
      {"measurement": "relative viability", "setting": "NCI-H1703; first compound 8 µM", "value": 0.782},
      {"measurement": "relative viability", "setting": "IA-LM; first compound 0.08 µM", "value": 0.686},
      {"measurement": "relative viability", "setting": "IA-LM; first compound 0.253 µM", "value": 0.723},
      {"measurement": "relative viability", "setting": "IA-LM; first compound 0.8 µM", "value": 0.923},
      {"measurement": "relative viability", "setting": "IA-LM; first compound 2.53 µM", "value": 0.746},
      {"measurement": "relative viability", "setting": "IA-LM; first compound 8 µM", "value": 0.728}
    ]},
    {"smiles": "O=c1[nH]c2ccccc2n1C1CCN(CCCC(c2ccc(F)cc2)c2ccc(F)cc2)CC1", "note": "[Pimozide] + CC(C)C[C@H](NC(=O)[C@H](Cc1ccccc1)NC(=O)c1cnccn1)B(O)O [Bortezomib] (partner 0.002 µM)", "values": [
      {"measurement": "relative viability", "setting": "EBC-1; first compound 0.08 µM", "value": 0.517},
      {"measurement": "relative viability", "setting": "EBC-1; first compound 0.253 µM", "value": 0.557},
      {"measurement": "relative viability", "setting": "EBC-1; first compound 0.8 µM", "value": 0.532},
      {"measurement": "relative viability", "setting": "EBC-1; first compound 2.53 µM", "value": 0.439},
      {"measurement": "relative viability", "setting": "EBC-1; first compound 8 µM", "value": 0.381},
      {"measurement": "relative viability", "setting": "Calu-6; first compound 0.08 µM", "value": 1},
      {"measurement": "relative viability", "setting": "Calu-6; first compound 0.253 µM", "value": 1.15},
      {"measurement": "relative viability", "setting": "Calu-6; first compound 0.8 µM", "value": 0.969},
      {"measurement": "relative viability", "setting": "Calu-6; first compound 2.53 µM", "value": 1.04},
      {"measurement": "relative viability", "setting": "Calu-6; first compound 8 µM", "value": 0.856},
      {"measurement": "relative viability", "setting": "NCI-H1299; first compound 0.08 µM", "value": 0.984},
      {"measurement": "relative viability", "setting": "NCI-H1299; first compound 0.253 µM", "value": 1.05},
      {"measurement": "relative viability", "setting": "NCI-H1299; first compound 0.8 µM", "value": 0.975},
      {"measurement": "relative viability", "setting": "NCI-H1299; first compound 2.53 µM", "value": 1.01},
      {"measurement": "relative viability", "setting": "NCI-H1299; first compound 8 µM", "value": 0.976},
      {"measurement": "relative viability", "setting": "NCI-H1563; first compound 0.08 µM", "value": 0.848},
      {"measurement": "relative viability", "setting": "NCI-H1563; first compound 0.253 µM", "value": 0.936},
      {"measurement": "relative viability", "setting": "NCI-H1563; first compound 0.8 µM", "value": 0.855},
      {"measurement": "relative viability", "setting": "NCI-H1563; first compound 2.53 µM", "value": 0.67},
      {"measurement": "relative viability", "setting": "NCI-H1563; first compound 8 µM", "value": 0.583},
      {"measurement": "relative viability", "setting": "NCI-H1703; first compound 0.08 µM", "value": 0.206},
      {"measurement": "relative viability", "setting": "NCI-H1703; first compound 0.253 µM", "value": 0.337},
      {"measurement": "relative viability", "setting": "NCI-H1703; first compound 0.8 µM", "value": 0.379},
      {"measurement": "relative viability", "setting": "NCI-H1703; first compound 2.53 µM", "value": 0.227},
      {"measurement": "relative viability", "setting": "NCI-H1703; first compound 8 µM", "value": 0.306},
      {"measurement": "relative viability", "setting": "IA-LM; first compound 0.08 µM", "value": 0.789},
      {"measurement": "relative viability", "setting": "IA-LM; first compound 0.253 µM", "value": 0.792},
      {"measurement": "relative viability", "setting": "IA-LM; first compound 0.8 µM", "value": 0.856},
      {"measurement": "relative viability", "setting": "IA-LM; first compound 2.53 µM", "value": 0.901},
      {"measurement": "relative viability", "setting": "IA-LM; first compound 8 µM", "value": 0.692}
    ]}
  ]
}
